Assays:
RSK2 [1] = target: T1, RSK2 (Homo sapiens, UniProt P51812); test: FRET kinase binding assay (LanthaScreen Eu Kinase Binding Assay), full-length RSK2; settings: for % Uninhibited kinase at 30 μM: 30 μM inhibitor; for IC50: 15 nM tracer; for Relative Off-Rate: slope of change in IC50 over time after 2 h pre-incubation, log-log fit
Method: (§1) Normalised EMR was calculated in MATLAB (Mathworks).
(§2) Hill slope and IC50 were unconstrained. […] Statistical significance is considered using α = 0.01.

RSK2 NTKD = target: T2, RSK2 NTKD (Homo sapiens, UniProt P51812); test: FRET kinase binding assay, isolated RSK2 NTKD; settings: for % Uninhibited kinase at 30 μM: 30 μM inhibitor
T2 construct: domain, containing residues 1–389; made in house
Method: as §1
Recombinant baculoviruses were generated by the Gateway cloning using the BaculoDirect Baculovirus Expression System (Invitrogen) according to the manufacturer's manual.The cDNA for RSK2 NTKD was amplified by conventional PCR, then cloned into pENTR-D-TOPO (pENTR Directional TOPO Cloning Kits, Invitrogen). The resulting Gateway Entry vectors were used for making the baculoviruses in the same way as RSK1 and RSK2 WT viruses. These constructs have 6xHis sequence in their C-termini and recombinant proteins were purified by Ni-NTA Agarose (Qiagen).
as §2

RSK2 [2] = target: T1, RSK2; test: ELISA kinase activity assay, RSK2; type: biochemical; settings: for IC50: 10 μM ATP, 30 min reaction; for % Uninhibited kinase at 30 μM: 30 μM inhibitor
Method: The activity of RSK2 was measured as previously reported. Briefly, 1 nM kinase, inhibitor or vehicle (1% DMSO), and 10 μM ATP in kinase buffer were dispensed into the wells of a 96-well plate with adsorbed glutathione S-transferase fusion protein containing the sequence […]. The reaction was stopped after 30 min, during the linear phase, with the addition of equal volume 500 mM EDTA, then phosphorylated peptide was measured by ELISA. Luminescence from wells with EDTA added before ATP was subtracted, then luminescence was normalised to the average vehicle luminescence. […] After 2 h incubation, the kinase/inhibitor mix was diluted 100-fold in kinase buffer. […] The reaction was stopped at the time indicated in the figures with the addition of EDTA, and amount of phosphorylated peptide was measured by ELISA.
as §2

RSK1 [3] = target: T3, RSK1 (Homo sapiens, UniProt Q15418); test: FRET kinase binding assay, RSK1; settings: for % Uninhibited kinase at 30 μM: 30 μM inhibitor
Method: as §1, §2
The results from the pre-incubation experiments provide an indirect measure of the inhibitor off rate whereas the simultaneous addition of inhibitor and tracer provide an indirect measure of the inhibitor on rate. […] The mechanism that accounts for the unique properties of RSK2 interacting with 1c are unknown.

RSK2 [4] = target: T1, RSK2; test: ELISA dilution reaction (100-fold dilution after 2 h pre-incubation), RSK2; type: biochemical
Method: The activity of RSK2 was measured as previously reported. Briefly, 1 nM kinase, inhibitor or vehicle (1% DMSO), and 10 μM ATP in kinase buffer were dispensed into the wells of a 96-well plate with adsorbed glutathione S-transferase fusion protein containing the sequence […]. The reaction was stopped after 30 min, during the linear phase, with the addition of equal volume 500 mM EDTA, then phosphorylated peptide was measured by ELISA. Luminescence from wells with EDTA added before ATP was subtracted, then luminescence was normalised to the average vehicle luminescence. […] After 2 h incubation, the kinase/inhibitor mix was diluted 100-fold in kinase buffer. […] After the dilution, kinase/inhibitor solution and 3.3 μM ATP in kinase buffer were mixed to initiate the reaction. The reaction was stopped at the time indicated in the figures with the addition of EDTA, and amount of phosphorylated peptide was measured by ELISA.
To further analyse the stability of RSK2 with 1c the ELISA assay was used as an orthogonal approach. […] Inhibition of kinase activity was measured at differing time points and compared to that obtained with a concentration of inhibitor equal to the concentration after dilution. […]
Figure 6. […] After dilution, ATP was added and the reaction proceeded for the times indicated, then the reaction was stopped with EDTA and the amount of phosphorylated substrate was measured by ELISA. […]

RSK1 [5] = target: T3, RSK1; test: ELISA dilution reaction (100-fold dilution after 2 h pre-incubation), RSK1; type: biochemical; settings: 4 h after 100-fold dilution
247 kinases = test system: 247 kinases; parameters: method as in PMID 27528706; settings: representatives from all kinase families; cited from earlier work
RSK1/2 = settings: cell-based assay; cited from earlier work
RSK1 [6] = target: T3, RSK1; test: ELISA kinase activity assay, RSK1; type: biochemical; settings: RSK1, 2 h pre-incubation
RSK3 = RSK3 (Homo sapiens, UniProt Q15349); test: FRET kinase binding assay, GST-tagged RSK3
Method: (§3) For RSK1 and RSK2 NTKD, 2 nM Eu Streptavidin and 2 nM Biotin anti-His antibody (Invitrogen) and for RSK3/4, 2 nM Eu anti-GST antibody (Invitrogen) were used in place of the Eu anti-His antibody. […] The corresponding average EMR of wells without inhibitor or kinase was subtracted, and background-subtracted EMR was normalised to average vehicle control. Normalised EMR was calculated in MATLAB (Mathworks).
(§4) Hill slope and IC50 were unconstrained. […] Curve fitting and statistics were calculated in Prism 9.0.2 (Graphpad). Statistical significance is considered using α = 0.01.
(§5) This assay uses an ATP-mimetic tracer labelled with an acceptor fluorophore and a recombinant His-tagged kinase, which is indirectly labelled with a europium donor chelated to an anti-His antibody. Interaction of the tracer with the kinase generates a FRET signal. […] GST-tagged RSK3 and RSK4 were purchased and tested with a labelled anti-GST antibody in the FRET assay.

RSK4 = RSK4 (Homo sapiens, UniProt Q9UK32); test: FRET kinase binding assay, GST-tagged RSK4
Method: as §3, §4, §5

[7] = FRET, RSK2, 2 h kinase-inhibitor incubation before tracer
[8] = FRET, RSK2, 5 min kinase-inhibitor incubation

T1 sequence (P51812 whole entry): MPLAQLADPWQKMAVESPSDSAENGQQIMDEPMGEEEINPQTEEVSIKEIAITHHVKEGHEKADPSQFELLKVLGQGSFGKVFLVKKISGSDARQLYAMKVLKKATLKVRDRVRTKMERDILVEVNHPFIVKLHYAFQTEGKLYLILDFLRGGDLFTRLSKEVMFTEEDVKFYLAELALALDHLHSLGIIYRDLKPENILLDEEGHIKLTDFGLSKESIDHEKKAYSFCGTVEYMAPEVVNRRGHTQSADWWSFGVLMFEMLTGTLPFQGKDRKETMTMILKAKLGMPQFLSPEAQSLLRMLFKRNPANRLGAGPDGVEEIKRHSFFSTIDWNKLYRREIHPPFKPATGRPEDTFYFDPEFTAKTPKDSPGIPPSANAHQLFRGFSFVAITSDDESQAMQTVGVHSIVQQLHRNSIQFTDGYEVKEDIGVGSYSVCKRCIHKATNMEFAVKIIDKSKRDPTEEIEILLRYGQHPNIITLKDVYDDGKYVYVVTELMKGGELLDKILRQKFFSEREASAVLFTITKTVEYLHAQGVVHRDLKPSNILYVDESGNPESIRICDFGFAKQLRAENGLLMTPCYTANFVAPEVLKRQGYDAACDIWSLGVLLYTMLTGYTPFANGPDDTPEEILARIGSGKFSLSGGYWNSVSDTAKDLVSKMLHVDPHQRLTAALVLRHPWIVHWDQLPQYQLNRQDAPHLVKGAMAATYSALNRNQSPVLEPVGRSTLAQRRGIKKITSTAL
T2 sequence (P51812 1-389): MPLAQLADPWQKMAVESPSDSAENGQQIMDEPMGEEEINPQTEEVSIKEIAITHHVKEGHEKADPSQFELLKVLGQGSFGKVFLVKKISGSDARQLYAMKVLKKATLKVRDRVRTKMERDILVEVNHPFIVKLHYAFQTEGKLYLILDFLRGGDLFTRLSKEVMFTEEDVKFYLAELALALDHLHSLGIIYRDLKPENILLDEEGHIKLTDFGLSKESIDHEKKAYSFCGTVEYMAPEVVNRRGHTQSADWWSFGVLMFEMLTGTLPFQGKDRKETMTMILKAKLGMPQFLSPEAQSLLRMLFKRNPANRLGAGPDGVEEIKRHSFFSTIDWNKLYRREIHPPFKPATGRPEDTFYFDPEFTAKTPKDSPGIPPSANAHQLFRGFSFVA
T3 sequence (Q15418 whole entry): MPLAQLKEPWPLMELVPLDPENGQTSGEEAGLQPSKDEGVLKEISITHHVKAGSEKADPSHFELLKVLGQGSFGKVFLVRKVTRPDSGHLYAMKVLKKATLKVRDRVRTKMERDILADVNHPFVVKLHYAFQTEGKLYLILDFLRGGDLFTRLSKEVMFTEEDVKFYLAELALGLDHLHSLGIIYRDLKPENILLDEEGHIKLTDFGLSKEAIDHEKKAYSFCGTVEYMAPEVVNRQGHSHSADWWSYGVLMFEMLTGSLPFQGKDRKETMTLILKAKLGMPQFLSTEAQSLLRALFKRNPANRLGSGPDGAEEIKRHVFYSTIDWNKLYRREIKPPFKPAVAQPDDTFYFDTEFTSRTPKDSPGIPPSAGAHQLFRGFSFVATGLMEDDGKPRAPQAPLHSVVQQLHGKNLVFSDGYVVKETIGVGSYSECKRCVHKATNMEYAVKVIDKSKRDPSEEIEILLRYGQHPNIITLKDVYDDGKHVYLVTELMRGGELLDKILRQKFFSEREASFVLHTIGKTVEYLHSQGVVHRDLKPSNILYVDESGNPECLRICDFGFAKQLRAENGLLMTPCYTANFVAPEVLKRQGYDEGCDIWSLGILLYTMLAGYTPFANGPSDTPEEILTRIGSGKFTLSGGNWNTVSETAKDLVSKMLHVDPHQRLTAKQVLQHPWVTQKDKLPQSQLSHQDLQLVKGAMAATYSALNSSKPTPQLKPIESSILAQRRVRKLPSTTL
Chain of RSK4 (Q9UK32 whole entry, species assumed): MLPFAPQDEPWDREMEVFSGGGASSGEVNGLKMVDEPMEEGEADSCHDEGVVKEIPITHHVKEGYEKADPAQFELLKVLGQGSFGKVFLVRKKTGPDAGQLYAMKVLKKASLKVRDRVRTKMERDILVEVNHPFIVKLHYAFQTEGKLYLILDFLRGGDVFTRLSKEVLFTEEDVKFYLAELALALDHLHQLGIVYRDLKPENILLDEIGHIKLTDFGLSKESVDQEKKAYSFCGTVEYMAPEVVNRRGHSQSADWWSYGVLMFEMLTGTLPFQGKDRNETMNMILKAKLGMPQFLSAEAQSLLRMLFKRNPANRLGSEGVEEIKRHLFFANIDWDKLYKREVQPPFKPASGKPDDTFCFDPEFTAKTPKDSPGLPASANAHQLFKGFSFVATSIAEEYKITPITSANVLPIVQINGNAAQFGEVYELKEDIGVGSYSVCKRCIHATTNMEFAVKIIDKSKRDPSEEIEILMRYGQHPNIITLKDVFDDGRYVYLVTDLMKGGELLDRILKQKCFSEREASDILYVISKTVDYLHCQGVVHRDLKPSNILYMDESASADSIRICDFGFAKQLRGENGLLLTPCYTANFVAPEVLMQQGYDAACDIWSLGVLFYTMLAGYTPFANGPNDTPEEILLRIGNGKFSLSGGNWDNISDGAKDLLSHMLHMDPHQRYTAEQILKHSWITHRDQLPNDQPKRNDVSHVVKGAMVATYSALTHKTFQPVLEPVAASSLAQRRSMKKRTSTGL
Chain of RSK3 (Q15349 whole entry, species assumed): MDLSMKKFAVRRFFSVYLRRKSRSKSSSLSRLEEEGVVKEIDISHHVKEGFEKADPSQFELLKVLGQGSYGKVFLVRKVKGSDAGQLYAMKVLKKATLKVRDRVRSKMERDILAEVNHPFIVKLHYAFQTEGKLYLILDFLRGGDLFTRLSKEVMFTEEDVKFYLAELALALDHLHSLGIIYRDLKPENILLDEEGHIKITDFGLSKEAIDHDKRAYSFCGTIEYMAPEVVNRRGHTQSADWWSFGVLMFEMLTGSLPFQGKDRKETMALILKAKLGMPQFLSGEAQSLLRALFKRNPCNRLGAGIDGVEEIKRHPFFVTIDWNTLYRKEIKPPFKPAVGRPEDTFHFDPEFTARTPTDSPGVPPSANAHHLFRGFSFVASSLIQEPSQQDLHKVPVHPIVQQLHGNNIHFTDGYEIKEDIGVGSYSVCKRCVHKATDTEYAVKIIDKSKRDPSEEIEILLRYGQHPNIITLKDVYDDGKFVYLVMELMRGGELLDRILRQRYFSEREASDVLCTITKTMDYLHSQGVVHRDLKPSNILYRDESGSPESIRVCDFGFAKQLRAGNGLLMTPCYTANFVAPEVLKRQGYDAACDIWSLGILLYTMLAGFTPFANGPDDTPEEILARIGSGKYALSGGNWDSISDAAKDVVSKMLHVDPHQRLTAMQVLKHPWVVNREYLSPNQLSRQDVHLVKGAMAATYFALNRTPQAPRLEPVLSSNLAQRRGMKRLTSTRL

Row | SMILES | % Uninhibited kinase at 30 μM (RSK2 [1]; FRET, RSK2, 2 h incubation) [%] | IC50 (RSK2 [1]; [7]) [nM] | Relative Off-Rate (RSK2 [1]; RSK2) | % Uninhibited kinase at 30 μM (RSK2 [1]; FRET, RSK2, 5 min incubation) [%] | IC50 (RSK2 [1]; [8]) [nM] | % Uninhibited kinase at 30 μM (RSK2 NTKD; 2 h incubation) [%] | IC50 (RSK2 [2]; RSK2, 2 h pre-incubation) [nM] | % Uninhibited kinase at 30 μM (RSK2 [2]; RSK2, 2 h pre-incubation) [%] | IC50 (RSK1 [3]; FRET, RSK1, 2 h incubation) [nM] | % Uninhibited kinase at 30 μM (RSK1 [3]; FRET, RSK1, 2 h incubation) [%] | further results
1 | CCCNC(=O)O[C@@H]1[C@@H](OC(=O)NCCC)[C@@H](O)[C@H](Oc2c(-c3ccc(O)cc3)oc3cc(O)cc(O)c3c2=O)O[C@H]1CCC [Inhibitor 1e, (2 s,3S,4S,5R,6S)-6-((5,7-dihydroxy-2–(4-hydroxyphenyl)-4-oxo-4H-chromen-3-yl)oxy)-5-hydroxy-2-propyltetrahydro-2H-pyran-3,4-diyl bis(n-propylcarbamate)] | 0.8 | 83.7 | 0.417 log10(nM/min) |  |  |  |  |  |  |  | melting point: 158 to 160 °C
2 | CCCNC(=O)O[C@@H]1[C@@H](OC(C)=O)[C@@H](O)[C@H](Oc2c(-c3ccc(O)cc3)oc3cc(O)cc(O)c3c2=O)O[C@H]1CCC [Inhibitor 1c, (2 s,3R,4S,5S,6S)-2-((5,7-dihydroxy-2–(4-hydroxyphenyl)-4-oxo-4H-chromen-3-yl)oxy)-3-hydroxy-6-propyl-5-((propylcarbamoyl)oxy)tetrahydro-2H-pyran-4-yl acetate] | 0.3 | 37.4 | 0.126 log10(nM/min) | 26.2 | 6400 | 11.1 | 84.7 | 9.4 | 12.8 | 6.1 | Inhibition at 8-fold higher concentration than the IC50 (RSK2 [1]; FRET, RSK2, 5 min pre-incubation): 75%; Off rate lower than that of 1d, 1e, and 1f (RSK2 [1]; RSK2, relative off-rate comparison): more than three-fold; Relative on-rate (RSK2 [1]; RSK2, change in IC50 over time, tracer added simultaneously with inhibitor): −1.204 log10(nM/min); Off: On Ratio (RSK2 [1]; RSK2, ratio of absolute value of relative off-rate to on-rate): 0.10; IC50 (RSK2 NTKD; 2 h incubation): 12 nM; Relative on-rate (RSK1 [3]; RSK1, change in IC50 over time, tracer added simultaneously with inhibitor): −0.719 log10(nM/min); Off: On Ratio (RSK1 [3]; RSK1, ratio of absolute value of relative off-rate to on-rate): 0.25; Relative Off-Rate (RSK1 [3]; RSK1, slope of change in IC50 over time after 2 h pre-incubation, log-log fit): 0.176 log10(nM/min); inhibition at 1.5 µM (RSK2 [4]; over a 12 h time course after 100-fold dilution, 100 nM RSK2 pre-incubated 2 h with 1.5 μM 1c): ~50%; Inhibition of RSK1 after the dilution (RSK1 [5]): not inhibited
3 | CCCC1CC(Oc2c(-c3ccc(O)cc3)oc3cc(O)cc(O)c3c2=O)C(O)C(OC(C)=O)C1OC(C)=O (stereo not drawn) [Inhibitor 1b, C5”-n-propyl cyclitol SL0101] | 1.3 | 215 | 0.601 log10(nM/min) | 49.7 | 24100 |  | 183 | 15.7 |  |  | Specificity in screen of 247 kinases (247 kinases): primarily targeted RSK1/2; Inhibition of proliferation when RSK1/2 silenced (RSK1/2): ineffective
4 | CCCNC(=O)OC1C(CCC)CC(Oc2c(-c3ccc(O)cc3)oc3cc(O)cc(O)c3c2=O)C(O)C1OC(C)=O (stereo not drawn) [Inhibitor 1d] | 0.5 | 26.3 | 0.548 log10(nM/min) |  |  |  | 74.1 | 11.1 |  |  | 
5 | CC(=O)OC1C(C)OC(Oc2c(-c3ccc(O)cc3)oc3cc(O)cc(O)c3c2=O)C(O)C1OC(C)=O (stereo not drawn) [SL0101, reference compound] | 4.3 |  |  | 45.7 |  | 11.5 |  | 13.9 | 193 | 16.7 | IC50 (RSK1 [6]): 70.7 nM; % Uninhibited kinase at 30 μM (RSK1 [6]; 30 μM inhibitor): 3.9%; Inhibition after 5 min incubation (RSK2 [1]; FRET, RSK2, 5 min incubation): ~50%; Inhibition of RSK3 (RSK3; 2 h incubation): did not inhibit; % Uninhibited kinase at 30 μM (RSK3; RSK3, 2 h incubation, 30 μM inhibitor): 90.3%; Increase in IC50 with 5 min vs 2 h incubation (RSK2 NTKD): two-fold; Inhibition after 5 min incubation (RSK2 NTKD; 5 min incubation): ~80%; % Uninhibited kinase at 30 μM (RSK2 NTKD; 5 min incubation): 20.1%; Inhibition of RSK4 (RSK4; 2 h incubation): did not inhibit; % Uninhibited kinase at 30 μM (RSK4; RSK4, 2 h incubation, 30 μM inhibitor): 70.9%; Increase in IC50 with 5 min vs 2 h pre-incubation (RSK2 [2]; RSK2): two-fold; % Uninhibited kinase at 30 μM (RSK2 [2]; RSK2, 5 min pre-incubation): 31.6%; IC50 (RSK1 [3]; FRET, RSK1, 5 min incubation): 774 nM; Inhibition after 5 min incubation (RSK1 [3]; FRET, RSK1, 5 min incubation): 80%; % Uninhibited kinase at 30 μM (RSK1 [3]; FRET, RSK1, 5 min incubation): 19.2%; Inhibition of RSK2 after the dilution (RSK2 [4]; 4 h after 100-fold dilution, 100 nM RSK2 pre-incubated 2 h with 5 μM SL0101): unable to inhibit
6 | CCCNC(=O)OC1C(CCC)CC(Oc2c(-c3ccc(O)cc3)oc3cc(O)cc(O)c3c2=O)C(O)C1OC(=O)NCCC (stereo not drawn) [Inhibitor 1f] | 1.3 | 90.9 | 0.630 log10(nM/min) |  |  |  |  |  |  |  | 

Source: article PMC8344253, “Identifying requirements for RSK2 specific inhibitors” (Journal of Enzyme Inhibition and Medicinal Chemistry, 2021)
